Reference: ChEMBL document CHEMBL1201862, “PubChem BioAssay data set” (2004)
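Test compounds were applied to cells in 96-well plates for 48 hours at 5 doses. At the GI50, growth is halved.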 Activity calls are given as the source filed them. Rule as the data show it: active = GI50 up to about 1.1 µM and inactive = higher.

How the values were obtained:
Experiment in all cases: NCI-60 cell line screen, 48 h
SW-620 = test system: SW-620
RPMI-8226 = test system: RPMI-8226
MOLT-4 = test system: MOLT-4
HL-60 = test system: HL-60
A498 = test system: A498
SNB-19 = test system: SNB-19
OVCAR-3 = test system: OVCAR-3
HCC 2998 = test system: HCC 2998
A549 = test system: A549
SK-MEL-28 = test system: SK-MEL-28
SK-OV-3 = test system: SK-OV-3
HOP-62 = test system: HOP-62
SF-295 = test system: SF-295
K562 = test system: K562
HOP-92 = test system: HOP-92
NCI-H23 = test system: NCI-H23
LOX IMVI = test system: LOX IMVI
HT-29 = test system: HT-29
UACC-62 = test system: UACC-62
COLO 205 = test system: COLO 205

| SMILES | GI50 (SW-620) | GI50 (RPMI-8226) | GI50 (MOLT-4) | GI50 (HL-60) | GI50 (A498) | GI50 (SNB-19) | GI50 (OVCAR-3) | GI50 (HCC 2998) | GI50 (A549) | GI50 (SK-MEL-28) | GI50 (SK-OV-3) | GI50 (HOP-62) | GI50 (SF-295) | GI50 (K562) | GI50 (HOP-92) | GI50 (NCI-H23) | GI50 (LOX IMVI) | GI50 (HT-29) | GI50 (UACC-62) | GI50 (COLO 205) |
| --- | --- | --- | --- | --- | --- | --- | --- | --- | --- | --- | --- | --- | --- | --- | --- | --- | --- | --- | --- | --- |
| Cc1ccccc1OCC(COC(=O)Nc1ccccc1)OC(=O)Nc1ccccc1 (centres undefined) | 52.8 µM (inactive) | 1.81 µM (inactive) | 3.49 µM (inactive) | 4.28 µM (inactive) | 61.2 µM (inactive) | 22.1 µM (inactive) | 87.7 µM (inactive) | 83.8 µM (inactive) | 32.7 µM (inactive) | > 100 µM (inactive) | 59.7 µM (inactive) | 31.9 µM (inactive) | 51.3 µM (inactive) | 4.05 µM (inactive) | 10.9 µM (inactive) | 54 µM (inactive) | 15.1 µM (inactive) | 31.6 µM (inactive) | 23.3 µM (inactive) | 72.3 µM (inactive) |
| Cc1cccc(N2C(=O)C3c4[nH]c5ccc(C)cc5c4C4CCC(C(C)(C)C)CC4C3C2=O)c1 (centres undefined) | 21 µM (inactive) | 15.5 µM (inactive) | 8.97 µM (inactive) | 17.7 µM (inactive) | – | 25.2 µM (inactive) | 13.6 µM (inactive) | – | 15.8 µM (inactive) | 42.6 µM (inactive) | – | 15.8 µM (inactive) | 19.4 µM (inactive) | 23.9 µM (inactive) | 15.7 µM (inactive) | 26.1 µM (inactive) | 17.2 µM (inactive) | 21.4 µM (inactive) | 23.3 µM (inactive) | 17.4 µM (inactive) |
| CC(/C=N/N=C(N)N)=N\N=C(N)N | 7.21 µM (inactive) | 12.1 µM (inactive) | 9.25 µM (inactive) | 7.24 µM (inactive) | 253 µM (inactive) | 36.1 µM (inactive) | 6.11 µM (inactive) | 5.57 µM (inactive) | 61.9 µM (inactive) | 64.6 µM (inactive) | 43.4 µM (inactive) | 6.58 µM (inactive) | 92.3 µM (inactive) | 8.73 µM (inactive) | 3.43 µM (inactive) | 18.5 µM (inactive) | 4.18 µM (inactive) | – | 46.6 µM (inactive) | 3.02 µM (inactive) |
| Cc1c2c(cc3c1[nH]c1ccccc13)C(c1ccc(F)cc1)=NCC2 | 0.665 µM (active) | 0.935 µM (active) | 1 µM (active) | 0.358 µM (active) | 1.37 µM (inactive) | 1.41 µM (inactive) | 0.993 µM (active) | 1.04 µM (active) | 1.48 µM (inactive) | 1.48 µM (inactive) | 1.37 µM (inactive) | 2.05 µM (inactive) | 0.869 µM (active) | 0.379 µM (active) | 1.44 µM (inactive) | 1.15 µM (inactive) | 0.509 µM (active) | 1.17 µM (inactive) | 0.935 µM (active) | 0.679 µM (active) |
| CCOC(C)OC1CC(n2cc(C)c(=O)[nH]c2=O)OC1CO (centres undefined) | > 100 µM (inactive) | > 100 µM (inactive) | > 100 µM (inactive) | > 100 µM (inactive) | > 100 µM (inactive) | > 100 µM (inactive) | > 100 µM (inactive) | > 100 µM (inactive) | > 100 µM (inactive) | > 100 µM (inactive) | > 100 µM (inactive) | > 100 µM (inactive) | > 100 µM (inactive) | > 100 µM (inactive) | > 100 µM (inactive) | > 100 µM (inactive) | > 100 µM (inactive) | > 100 µM (inactive) | – | > 100 µM (inactive) |
| CC1=C[C@]2(CC(C)C3C(CC4(C)C5CCC6C(C)(C)C(=O)CC[C@@]67C[C@@]57CC[C@]34C)O2)OC1=O (some centres undefined) | 12.6 µM (inactive) | 9.2 µM (inactive) | 10.7 µM (inactive) | 0.968 µM (active) | 23.7 µM (inactive) | 15.7 µM (inactive) | – | 18.1 µM (inactive) | 16.6 µM (inactive) | 18.6 µM (inactive) | – | – | 25.3 µM (inactive) | 4.03 µM (inactive) | 18.1 µM (inactive) | 7.64 µM (inactive) | 3.46 µM (inactive) | 9.31 µM (inactive) | – | 36.9 µM (inactive) |
| O=S(=O)(O)c1cc2ccc1/C=C\c1ccc(cc1S(=O)(=O)O)/N=N\c1ccc(c(S(=O)(=O)O)c1)/C=C\c1ccc(cc1S(=O)(=O)O)/N=N\2 | > 100 µM (inactive) | > 100 µM (inactive) | > 100 µM (inactive) | > 100 µM (inactive) | > 100 µM (inactive) | > 100 µM (inactive) | > 100 µM (inactive) | > 100 µM (inactive) | > 100 µM (inactive) | > 100 µM (inactive) | > 100 µM (inactive) | > 100 µM (inactive) | > 100 µM (inactive) | > 100 µM (inactive) | > 100 µM (inactive) | > 100 µM (inactive) | > 100 µM (inactive) | > 100 µM (inactive) | > 100 µM (inactive) | > 100 µM (inactive) |
| CCOC(=O)C(O)(NC(=O)c1ccc(F)cc1)C(F)(F)F (centres undefined) | > 100 µM (inactive) | > 100 µM (inactive) | > 100 µM (inactive) | > 100 µM (inactive) | – | > 100 µM (inactive) | > 100 µM (inactive) | > 100 µM (inactive) | > 100 µM (inactive) | > 100 µM (inactive) | > 100 µM (inactive) | > 100 µM (inactive) | > 100 µM (inactive) | > 100 µM (inactive) | > 100 µM (inactive) | > 100 µM (inactive) | > 100 µM (inactive) | > 100 µM (inactive) | > 100 µM (inactive) | > 100 µM (inactive) |
| CN(C)CCNC(=O)c1cccc2c1C(=O)c1ccccc1C2=O | 28.9 µM (inactive) | 50.9 µM (inactive) | 20.5 µM (inactive) | 20.6 µM (inactive) | > 100 µM (inactive) | 28 µM (inactive) | 19.3 µM (inactive) | 39.1 µM (inactive) | 37.2 µM (inactive) | 45.3 µM (inactive) | 58.9 µM (inactive) | > 31.6 µM (inactive) | 33.7 µM (inactive) | 19.1 µM (inactive) | 23.8 µM (inactive) | 22 µM (inactive) | 25.6 µM (inactive) | 26.2 µM (inactive) | 21.4 µM (inactive) | 16 µM (inactive) |
| Nc1ncc2c(n1)-c1ccccc1OC2 | > 100 µM (inactive) | > 100 µM (inactive) | > 100 µM (inactive) | > 100 µM (inactive) | 51.2 µM (inactive) | > 100 µM (inactive) | > 100 µM (inactive) | > 100 µM (inactive) | > 100 µM (inactive) | > 100 µM (inactive) | > 100 µM (inactive) | 76 µM (inactive) | > 100 µM (inactive) | > 100 µM (inactive) | 98.4 µM (inactive) | > 100 µM (inactive) | > 100 µM (inactive) | > 100 µM (inactive) | 55.7 µM (inactive) | > 100 µM (inactive) |
| COC1C(O)CC(OC2CC(Oc3cc4cc5c(c(O)c4c(O)c3C)C(=O)[C@@H](OC3CC(OC4CC(OC6CC(C)(O)C(OC(C)=O)C(C)O6)C(O)C(C)O4)C(O)C(C)O3)[C@H]([C@H](OC)C(=O)[C@@H](O)[C@@H](C)O)C5)OC(C)C2OC(C)=O)OC1C (some centres undefined) [CHROMOMYCIN] | < 0.01 µM (active) | < 0.01 µM (active) | < 0.01 µM (active) | 0.0127 µM (active) | 0.0038 µM (active) | 0.00424 µM (active) | < 0.01 µM (active) | < 0.01 µM (active) | 0.00382 µM (active) | 0.00368 µM (active) | 0.00673 µM (active) | 0.00355 µM (active) | 0.0139 µM (active) | 0.00566 µM (active) | < 0.01 µM (active) | < 0.01 µM (active) | 0.00348 µM (active) | < 0.01 µM (active) | 0.00295 µM (active) | < 0.01 µM (active) |
| COc1cc([C@@H]2c3cc4c(c(O[C@@H]5O[C@H]6CO[C@@H](C)O[C@H]6[C@H](O)[C@@H]5O)c3C[C@H]3COC(=O)[C@@H]32)OCO4)cc(OC)c1O | 8.3 µM (inactive) | 47.5 µM (inactive) | 10.6 µM (inactive) | 4.41 µM (inactive) | 4.11 µM (inactive) | 23.7 µM (inactive) | 6.76 µM (inactive) | 26.9 µM (inactive) | 10.9 µM (inactive) | 5.81 µM (inactive) | 19.6 µM (inactive) | 27.2 µM (inactive) | 3.48 µM (inactive) | 4.53 µM (inactive) | 25.7 µM (inactive) | 15.1 µM (inactive) | 4.73 µM (inactive) | 33.7 µM (inactive) | 4.8 µM (inactive) | 38.8 µM (inactive) |
| CCCC[C@H]1[C@@H](OCOc2ccccc2)COC(=O)N1[C@H](C)c1ccccc1 | 32.1 µM (inactive) | 6.76 µM (inactive) | 4.54 µM (inactive) | 18 µM (inactive) | 12.9 µM (inactive) | 21.3 µM (inactive) | 14.7 µM (inactive) | 17.7 µM (inactive) | 8.79 µM (inactive) | 21.6 µM (inactive) | 22.4 µM (inactive) | 13.8 µM (inactive) | 11.9 µM (inactive) | 7.18 µM (inactive) | 18.1 µM (inactive) | 18.2 µM (inactive) | 20.8 µM (inactive) | > 34.2 µM (inactive) | 10.3 µM (inactive) | 25.9 µM (inactive) |
| COc1cc(C(C)O)c(S(=O)(=O)CC(C)O)nn1 (centres undefined) | > 100 µM (inactive) | 43.9 µM (inactive) | 77.4 µM (inactive) | > 100 µM (inactive) | > 100 µM (inactive) | > 100 µM (inactive) | > 100 µM (inactive) | > 100 µM (inactive) | > 100 µM (inactive) | > 100 µM (inactive) | > 100 µM (inactive) | – | > 100 µM (inactive) | 72.9 µM (inactive) | > 100 µM (inactive) | > 100 µM (inactive) | > 100 µM (inactive) | > 100 µM (inactive) | > 100 µM (inactive) | > 100 µM (inactive) |
